We go through three compounds from ChEMBL document CHEMBL5465560, “Selectivity Literature for EUbOPEN Chemogenomic Library” (2024).

Test [1] deals with T1, Cyclin-dependent kinase 11A (Homo sapiens) (UniProt Q9UQ88).
T1 sequence (whole entry): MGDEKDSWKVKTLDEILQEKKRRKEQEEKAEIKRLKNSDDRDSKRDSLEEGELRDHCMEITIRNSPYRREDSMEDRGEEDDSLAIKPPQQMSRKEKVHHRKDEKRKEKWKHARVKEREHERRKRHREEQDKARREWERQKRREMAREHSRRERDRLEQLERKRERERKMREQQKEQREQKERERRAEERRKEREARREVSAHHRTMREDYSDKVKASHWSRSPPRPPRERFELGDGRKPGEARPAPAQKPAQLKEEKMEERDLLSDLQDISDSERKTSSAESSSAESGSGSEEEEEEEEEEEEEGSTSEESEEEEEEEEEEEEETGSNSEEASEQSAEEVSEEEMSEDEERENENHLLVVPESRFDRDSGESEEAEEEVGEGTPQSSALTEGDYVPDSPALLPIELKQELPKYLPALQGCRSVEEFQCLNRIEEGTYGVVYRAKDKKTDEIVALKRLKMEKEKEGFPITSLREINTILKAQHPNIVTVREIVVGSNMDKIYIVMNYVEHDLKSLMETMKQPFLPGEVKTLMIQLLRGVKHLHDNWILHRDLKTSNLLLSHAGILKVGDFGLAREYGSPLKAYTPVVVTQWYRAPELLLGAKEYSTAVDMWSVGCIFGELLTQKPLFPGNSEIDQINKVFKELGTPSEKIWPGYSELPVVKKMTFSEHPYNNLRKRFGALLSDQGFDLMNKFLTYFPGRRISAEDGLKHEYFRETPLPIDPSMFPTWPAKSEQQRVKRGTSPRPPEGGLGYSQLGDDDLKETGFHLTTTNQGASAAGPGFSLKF
Description: Selectivity interaction (Ambit KINOMEscan and KiNATiv profiling in Jurkat cells) EUB0000090b CDK11A. Format: cell-based. Conditions: at 1 µM.

Test [2] addresses T2, Serine/threonine-protein kinase tousled-like 1 (Homo sapiens) (UniProt Q9UKI8).
T2 sequence (whole entry): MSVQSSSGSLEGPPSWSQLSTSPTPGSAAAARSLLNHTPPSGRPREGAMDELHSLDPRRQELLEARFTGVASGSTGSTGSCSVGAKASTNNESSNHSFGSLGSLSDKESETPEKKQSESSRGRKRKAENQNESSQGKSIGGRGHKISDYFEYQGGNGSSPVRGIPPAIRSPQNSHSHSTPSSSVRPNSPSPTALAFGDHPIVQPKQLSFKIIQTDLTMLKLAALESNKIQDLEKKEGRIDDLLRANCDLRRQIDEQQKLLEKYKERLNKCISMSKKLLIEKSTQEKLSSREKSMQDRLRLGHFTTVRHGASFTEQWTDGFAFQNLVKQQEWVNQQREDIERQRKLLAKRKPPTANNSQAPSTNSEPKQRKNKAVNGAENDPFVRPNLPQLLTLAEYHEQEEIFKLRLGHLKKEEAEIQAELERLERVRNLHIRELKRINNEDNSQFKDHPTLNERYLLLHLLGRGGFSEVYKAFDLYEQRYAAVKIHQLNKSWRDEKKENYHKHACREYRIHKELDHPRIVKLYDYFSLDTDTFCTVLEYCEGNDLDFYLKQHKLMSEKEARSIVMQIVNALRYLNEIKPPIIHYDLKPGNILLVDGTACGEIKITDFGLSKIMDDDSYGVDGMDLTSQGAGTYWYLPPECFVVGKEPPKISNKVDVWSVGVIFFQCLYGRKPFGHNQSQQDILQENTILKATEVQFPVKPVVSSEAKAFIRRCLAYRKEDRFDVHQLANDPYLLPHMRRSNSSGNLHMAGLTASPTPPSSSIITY
Description: Selectivity interaction (ActivX KiNativ screen (kinase selectivity in THP-1 cell lysates)) EUB0000639a TLK1. Format: subcellular. The conditions noted are these: lysate, at 5 µM.

Test [3] deals with T3, Bromodomain and PHD finger-containing protein 3 (Homo sapiens) (UniProt Q9ULD4).
T3 sequence (whole entry): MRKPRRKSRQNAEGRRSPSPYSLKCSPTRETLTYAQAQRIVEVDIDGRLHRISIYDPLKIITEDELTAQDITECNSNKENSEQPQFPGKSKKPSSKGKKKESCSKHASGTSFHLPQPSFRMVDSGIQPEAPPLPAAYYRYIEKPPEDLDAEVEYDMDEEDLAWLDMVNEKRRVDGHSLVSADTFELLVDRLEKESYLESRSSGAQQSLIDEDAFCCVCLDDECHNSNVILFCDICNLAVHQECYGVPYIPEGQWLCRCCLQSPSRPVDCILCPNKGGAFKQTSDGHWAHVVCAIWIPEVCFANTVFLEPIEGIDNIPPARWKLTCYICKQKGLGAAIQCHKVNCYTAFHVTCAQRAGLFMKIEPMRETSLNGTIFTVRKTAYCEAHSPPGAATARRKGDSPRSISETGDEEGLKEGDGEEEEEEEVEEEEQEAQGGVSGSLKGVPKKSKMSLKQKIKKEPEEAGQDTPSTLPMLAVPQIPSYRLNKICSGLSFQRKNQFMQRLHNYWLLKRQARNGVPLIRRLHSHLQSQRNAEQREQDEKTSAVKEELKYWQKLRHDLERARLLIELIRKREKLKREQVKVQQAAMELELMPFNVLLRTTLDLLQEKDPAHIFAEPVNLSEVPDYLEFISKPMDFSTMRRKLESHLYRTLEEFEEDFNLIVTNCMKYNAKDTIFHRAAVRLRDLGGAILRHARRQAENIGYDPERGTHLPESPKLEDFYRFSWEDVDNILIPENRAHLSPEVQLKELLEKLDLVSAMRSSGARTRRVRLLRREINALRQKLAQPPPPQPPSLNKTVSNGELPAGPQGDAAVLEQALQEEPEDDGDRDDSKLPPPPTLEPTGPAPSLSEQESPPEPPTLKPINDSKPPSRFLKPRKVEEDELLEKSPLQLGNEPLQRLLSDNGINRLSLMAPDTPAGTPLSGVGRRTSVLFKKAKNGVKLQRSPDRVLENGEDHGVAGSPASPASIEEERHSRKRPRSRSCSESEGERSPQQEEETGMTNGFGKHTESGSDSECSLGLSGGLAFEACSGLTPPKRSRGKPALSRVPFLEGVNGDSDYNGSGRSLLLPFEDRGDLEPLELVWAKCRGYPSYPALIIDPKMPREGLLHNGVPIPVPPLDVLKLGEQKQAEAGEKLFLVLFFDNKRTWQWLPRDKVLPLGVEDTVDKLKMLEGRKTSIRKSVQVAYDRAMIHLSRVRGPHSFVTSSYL
Description: Selectivity interaction (PWWP, WD40, and Tudor domain panel (DSLS measurements, literature)) EUB0000270b BRPF3.

In test [1], `CN(C)C/C=C/C(=O)Nc1ccc(C(=O)N2CCCC(Nc3ncc(Cl)c(-c4c[nH]c5ccccc45)n3)C2)cc1` (stereo not drawn) registered a % of control of 95%.
In test [2], `CC[C@@H]1[C@H](F)C(=O)N[C@@H]1COc1nccc2cc(C(N)=O)c(OC)cc12` [ZIMLOVISERTIB] showed a % of inhibition of 74%.
`Cc1cc(CN)cc(C)c1-c1ncn(C)c1-c1cncn1C`: the dTagg in test [3] worked out at 0.3 K.
